Test results published in PubChem BioAssay AID2305 (GlaxoSmithKline (GSK), 2010).
Several values for one entry are separate records, joined by “and”; a condition that tells them apart may be missing. Equal entries are not always repeated.

These compounds were tested on P. falciparum 3D7 growth, pLDH absorbance (assay: blood-stage malaria parasite growth potency – strain 3D7, dose response (AID 2305)).

Row | Compound | IC50
1 | O=C(c1cc(-c2ccco2)[nH]n1)N1CCN(S(=O)(=O)c2ccc(Br)cc2)CC1 | 0.5 µM
2 | COc1ccc(Cl)cc1-c1nc(C(=O)NCCN2CCCCC2)c(C)s1 | 0.94 µM
3 | OCCN1CCN(Cc2ccc(-c3ccc(-c4nc5ccccc5[nH]4)cc3)cc2)CC1 | 0.62 µM
4 | O=C(Nc1cccc(F)c1)c1ccc(C(=O)NC2CCN(CC3CCCCC3)C2)cc1 (stereo unspecified) | 0.93 µM
5 | COC1CCC(C(=O)Nc2ccc(-c3cccc(-c4nc5c(C)cccc5[nH]4)c3)cc2)CC1 (stereo unspecified) | 0.58 µM
6 | Nc1nccc2ccc(-c3cccc(O)c3)cc12 | 0.64 µM
7 | O=C(/C=C/c1ccc([N+](=O)[O-])cc1)N1CCC(NS(=O)(=O)c2ccc(F)cc2)CC1 | 0.82 µM
8 | CCCCCN1CCCC(NS(=O)(=O)c2cccc(C(=O)Nc3cccc(C(F)(F)F)c3)c2)C1 (stereo unspecified) | 1.07 µM
9 | O=C(NCc1cccc(Br)c1)c1ccc(CNC2CCN(Cc3ccccc3)CC2)cc1 | 0.87 µM
10 | COc1ccc(CNCc2cccc(-c3ccc(-c4nc5ccccc5[nH]4)s3)c2)cc1 | 0.82 µM
11 | O=c1[nH]ccc2nc(N[C@@H]3CCNC3)nc(Nc3cccc(S(=O)(=O)N4CCOCC4)c3)c12 | 1.23 µM
12 | N#Cc1ccc2c(c1)CCN(CCC1CCC(NC(=O)/C=C/c3c[nH]c4c(Br)cccc34)CC1)CC2 (stereo unspecified) | 0.38 µM
13 | O=C(Nc1ccc(Cl)cc1)c1ccc(CN2CCCN(Cc3ccccc3)CC2)cc1 | 0.75 µM
14 | Cc1cc(N)c2cc(NC(=O)/C=C/c3ccc([N+](=O)[O-])cc3)ccc2n1 | 0.67 µM
15 | COC(=O)c1ccc(OCC(C)NCC(O)c2cccc(C(F)(F)F)c2)cc1 (stereo unspecified) | 0.84 µM
16 | COC(=O)c1ccc(C[C@@H](C)NC[C@H](O)c2cccc(C(F)(F)F)c2)cc1 | 0.79 µM and 0.76 µM
17 | NC(N)=NC(=O)Nc1cc(F)c(Cl)c(Br)c1 | 0.99 µM
18 | CN(C(=O)NCCc1ccccc1)C1CCN(CCCCCNC(=O)/C=C/c2ccc(Cl)c(Cl)c2)CC1 | 0.68 µM
19 | CCC(C)NC(=O)Nc1ccc(-c2cccc(-c3nc4ccc(C(F)(F)F)cc4[nH]3)c2)cc1 (stereo unspecified) | 0.62 µM
20 | CN(C)CCCn1c(N)c(-c2nc3ccccc3[nH]2)c2nc(C#N)c(C#N)nc21 | 0.59 µM
21 | Cc1cccc2[nH]c(-c3cc(-c4cn[nH]c4)cnc3N)nc12 | 0.22 µM
22 | O=C(/C=C/c1ccc(Cl)c(Cl)c1)NC1CCC(CN2CCC(c3c[nH]c4cc(C(F)(F)F)ccc34)CC2)CC1 (stereo unspecified) | 0.9 µM and 0.28 µM
23 | CC[C@H](C)CNC(=O)c1cncc(-c2ccc(CNCCCc3ccccc3)cc2)c1 | 0.73 µM
24 | CCCCn1c(N)c(N(Cc2ccco2)C(=O)C=Cc2cc(OC)c3c(c2)OCCO3)c(=O)[nH]c1=O | 0.95 µM

Row | Compound | IC50
25 | COc1ccc(C2CC(=O)C3=C(C2)NC(C)=C(C(=O)OC2CCCC2)C3c2ccc(O)cc2)cc1OC (stereo unspecified) | 0.57 µM
26 | c1ccc(-c2nc(Nc3ccncc3)sc2-c2ccccc2)cc1 | 0.81 µM
27 | Cc1noc(NC(=O)c2sc3ccccc3c2O)c1C | 0.85 µM
28 | CCc1cccc2sc(N3CCN(C(=O)c4ccc([N+](=O)[O-])o4)CC3)nc12 | 0.77 µM
29 | CNCc1cccc(-c2ccc3ccnc(N)c3c2)c1 | 0.09 µM
30 | CNCCNC(=O)C1Cc2c([nH]c3c(C)cccc23)C(c2ccc(Cl)c(Cl)c2)N1 (stereo unspecified) | 0.72 µM
31 | CN1CCCN(Cc2ccc(-c3ccc(NC(=O)c4cccc(C#N)c4)cc3)cc2)CC1 | 0.88 µM
32 | CCOc1c(OC)ccc2c1CCN(CCN1CCC(CNC(=O)c3ccc(-c4ccc(C#N)cc4)cc3)CC1)C2 | 1.08 µM
33 | Nc1c2c(nc3ccc(NC(=O)CCCc4ccccc4)cc13)CCCC2 | 0.43 µM
34 | O=c1cc(N2CCCNCC2)c(Cl)nn1Cc1ccc(NS(=O)(=O)c2ccc(Oc3ccccc3)cc2)cc1 | 0.8 µM
35 | CCNc1cc(C(=O)N[C@@H](Cc2ccccc2Cl)[C@H](O)CNC2CCCCC2)cc(N2CCCCS2(=O)=O)c1 | 0.8 µM
36 | CCCCOc1ccc(N2C(N)=NC(N)=NC2(C)C)cc1 | 0.21 µM
37 | c1ccc(-c2nc(Nc3nc4ccccc4[nH]3)[nH]c2-c2ccccc2)cc1 | 0.62 µM
38 | O=C(Nc1ccccc1N1CCOCC1)c1ncoc1-c1ccccc1C(F)(F)F | 1.06 µM
39 | Cc1ccc2nc3c(cc(C(=O)NCc4ccccc4)c(=N)n3CCCn3ccnc3)c(=O)n2c1 | 0.99 µM
40 | CN(C)CCOc1cc(NC(=O)/C=C/c2cccc3ccccc23)ccc1I | 1.26 µM
41 | COc1ccccc1CCNC(=O)c1cc(Br)cc(N2CCN(c3ccncc3)CC2)c1 | 1.27 µM
42 | Cc1[nH]c(C)c(-c2ccc(/C=C/c3ccccn3)cc2)c(=O)c1Cl | 0.52 µM
43 | CC(C)(C)c1cc(C(=O)N2CCN(c3ccc(C(F)(F)F)cn3)CC2)n(Cc2ccc(F)cc2)n1 | 0.98 µM
44 | CC(C)[C@H](NC(=O)c1ccc(O)c(-c2ccc(Cl)c(Cl)c2)c1)C(=O)NCCN1CCCC1 | 0.93 µM
45 | Cc1sc(CNCCCNc2cc(=O)c3ccccc3[nH]2)c(I)c1C | 0.85 µM
46 | CCc1c[nH]c2c(N3CCCC3=O)cc(C(=O)N[C@@H](Cc3ccccc3)[C@H](O)CNC(C)(C)c3cccc(OC)c3)cc12 | 0.19 µM
47 | S=C(NN=Cc1ccccn1)NC1C[C@H]2C=C[C@@H]1C2 (stereo partly specified) | 0.72 µM
48 | COc1cccc(C2CCN(CCN3CCC(CNC(=O)c4ccc(-c5ccc(C(F)(F)F)cc5)cc4)CC3)CC2)c1 | 0.89 µM

Row | Compound | IC50
49 | O=C(NCC1CCN(Cc2cccc(F)c2)C1)c1cc(-c2cccc(C(F)(F)F)c2)cs1 (stereo unspecified) | 0.99 µM
50 | CC(CN(C)C)C(=O)Nc1cccc(-c2ccc(-c3nc4ccccc4[nH]3)cc2)c1 (stereo unspecified) | 0.71 µM
51 | O=C(Nc1ccc(OC2CCN(Cc3ccc(F)cc3)C2)c(Cl)c1)c1ccsc1 (stereo unspecified) | 0.54 µM
52 | Cc1cccc2[nH]c(-c3ccc(-c4ccc(CN5CCOCC5)cc4)cc3)nc12 | 0.82 µM
53 | CCCc1cn2c3c(cc(C(=O)N[C@@H](Cc4ccccc4)[C@H](O)CNC4CCCCC4)cc13)N(C)S(=O)(=O)CC2 | 0.07 µM
54 | CCN(CCO)CCc1cccc(Nc2nccc(-c3c(-c4ccc(NC(=O)N(CC)CC)cc4)nn4ccccc34)n2)c1 | 1.11 µM
55 | Cc1csc(-c2nonc2NC(=O)COc2ccccc2C(C)C)n1 | 0.55 µM
56 | COc1ccc2nc3cc(Cl)ccc3c(NCc3ccccc3)c2c1 | 0.87 µM
57 | COc1cccc(-c2ccc(NC(=O)C3CCCN(Cc4cccc(OC)c4O)C3)cc2)c1 (stereo unspecified) | 0.85 µM
58 | Cc1ccc(CN2CCC(C(=O)Nc3ccc(-c4cc5ccccc5[nH]4)cc3)CC2)o1 | 1.42 µM
59 | CC(=O)Nc1nc(C(=O)Nc2ccc(-c3cccc(-c4nc5ccc(C(F)(F)F)cc5[nH]4)c3)cc2)cs1 | 0.18 µM
60 | O=C(c1ccccc1[N+](=O)[O-])N(Cc1ccccc1)c1ccccn1 | 0.19 µM
61 | CCOc1ccc(-c2nonc2NC(=O)c2ccc(OC(C)C)cc2)cc1OCC | 0.6 µM
62 | O=c1cc(NCCCNCc2[nH]c3cc(Cl)ccc3c2Cl)[nH]c2ccccc12 | 0.91 µM
63 | CC1N=C(N)N=C(N)N1OCc1ccccc1 (stereo unspecified) | 0.03 µM
64 | Nc1c2c(nc3ccc(C(=O)Nc4cc(I)c(O)c(I)c4)cc13)CCCC2 | 1.01 µM
65 | Cn1c(=N)cc(-c2cccc(I)c2)c2c(=O)[nH]c(N)nc21 | 0.27 µM
66 | CC1CCCN(C(=O)C(C)Nc2cc(Cl)ccc2N2CCOCC2)C1 (stereo unspecified) | 0.32 µM
67 | CSc1ccc(NC(=O)Nc2cc(C)nc3ccccc23)cc1 | 0.71 µM
68 | COc1cccc(C2CCN(CCN3CCC(NC(=O)c4ccc(-c5ccc(Cl)cc5)cc4)CC3)CC2)c1 | 1.09 µM
69 | O=C(Cc1cccnc1)Nc1cccc(-c2cccc(-c3nc4ccc(C(F)(F)F)cc4[nH]3)c2)c1 | 0.68 µM
70 | CN(C)CCNCc1ccc(-c2ccc(-c3nc4ccccc4[nH]3)s2)cc1 | 0.57 µM
71 | CC(C)c1ccc(NC(=O)c2ccc(C(=O)NCC3CCN(CC4CCCCC4)CC3)cc2)cc1 | 0.9 µM
